Assay results from US20120329761A1, “USE OF TIGECYCLINE FOR TREATMENT OF CANCER” (UNIVERSITY HEALTH NETWORK, priority 2010, published 2012).

Key:
[1] = system: bacterial protein synthesis; settings: cited from earlier work
[2] = system: primary AML patient samples; assay: Methylcellulose colony formation assay; assay type: cell-based, human; settings: 5 μM, primary AML n=7, colonies at 7 days
Method: (§1) FIG. 2. Tigecycline induces cell death and inhibits clonogenic growth in primary AML cells preferential over normal hematopoietic cells. Mononuclear cells from peripheral blood of leukemia patients (blast count >80%) and normal G-CSF expanded donors was treated with increasing concentrations of tigecycline for 48 hours. Cell viability was measured by Annexin-PI flow cytometry staining. Cell viability is expressed as a mean percentage plus or minus SD (n=3) relative to DMSO-treated cells. Mononuclear cells from primary AML patient samples (A, B) and normal peripheral blood cells (C) were plated in methylcelluose with 5 μM of Tigecycline. (D) Colony forming units were counted at 7 days (AML) and 14 days (Normal) post plating. […]
(§2) To assess clonogenic growth, primary AML cells (1.0×10^5/mL) or granulocyte colony-stimulating factor (G-CSF) mobilized PBSCs (1.0×10^5/mL) were plated in duplicate with increasing concentrations of tigecycline in MethoCult GF H4434 medium (StemCell Technologies, Vancouver, BC) containing 1% methycellulose in IMDM, 30% FCS, 1% bovine serum albumin, 3 U/mL of recombinant human erythropoietin, 10^−4 M of 2-mercaptoethanol, 2 mM of L-glutamine, 50 ng/mL of recombinant human stem cell factor, 10 ng/mL of GM-CSF, and 10 ng/mL of rh IL-3). Seven days (AML samples) or 14 days (normal PBCS) after plating, the number of colonies was counted as previously described^31.

[3] = system: normal hematopoietic cells; assay: Methylcellulose colony formation assay; assay type: cell-based, human; settings: 5 μM, normal hematopoietic cells n=5, colonies at 14 days
Method: as §1, §2

[4] = system: OCI-AML2 human leukemia cells; assay type: in vivo, SCID mice
Method: FIG. 3. Tigecycline has anti-leukemia activity in vivo. (A, B) Human leukemia (OCI-AML2) were injected subcutaneously into the flank of SCID mice. Seven days after injection, once tumors were palpable, mice were treated with tigecycline (50 mg/kg or 100 mg/kg twice daily by i.p. injection) or vehicle control (n=10 per group). Fourteen days after injection of cells, mice were sacrificed, tumors excised and the volume and mass of the tumors were measured. The tumor mass and the mean volume+SD are shown. Differences in tumor volume and mass were analyzed by an unpaired t-test: * p<0.001. (C) Tumours from two control mice, and three tigecycline-treated mice were excised after 5 days of treatment and total proteins were extracted and analyzed by western blotting for Cox-1, Cox-2, Cox-4, and tubulin. (D) Primary cells from three AML patients were injected intra-femorally into the right femur of female sub-lethally irradiated NOD/SCID mice. Three weeks after injection mice were treated with tigecycline (100 mg/kg by i.p. injection daily) or vehicle control (n=10 per group) for three weeks. Following treatment, human leukemia cell engraftment in the injected right femur was measured by FACS analysis for human CD45^+CD19^−CD33^+ cells. Data represent mean±SD of engrafted human cells. Cells from one patient experiment were used to assess secondary engraftment in a second generation of NOD/SCID mice. Equal numbers of viable leukemia cells from bone marrow of control and tigecycline treated mice were injected into irradiated NOD/SCID mice, which were not treated with tigecycline. Six weeks later, human leukemia cell engraftment in the injected right femur was measured by FACS analysis for human CD45^+CD19^−CD33^+ cells. (* p<0.005, Student's t-test).
OCI-AML2 human leukemia cells (1×10^6) were injected subcutaneously into the flanks of SCID mice (Ontario Cancer Institute, Toronto, ON). Seven days after injection, once tumours were palpable, mice were treated with tigecycline twice daily (50 mg/kg or 100 mg/kg by i.p. injection) or vehicle control (n=10 per group) for 14 days. Tumor volume (tumor length×width^2×0.5236) was measured three times a week using calipers. Twenty-one days after injection of cells, mice were sacrificed, tumors excised and the volume and mass of the tumors were measured.
Given the effects of tigecycline as a potential anti-leukemia agent, tigecycline in mouse models of leukemia was evaluated. To evaluate the anti-tumor efficacy of tigecycline in vivo, human OCI-AML2 leukemia cells were injected into the flank of SCID mice. […] Tumor volume and mass were measured over time (FIGS. 3A, B). […]

[5] = rat, in vivo, 30 mg/kg/day; cited from earlier work
[6] = PK study in mice, single dose i.p.; assay type: in vivo; settings: mouse, serum, ip, single dose 50 mg/kg i.p.
[7] = 50 mg/kg or 100 mg/kg twice daily i.p. for 14 days, p<0.001

## CN(C)c1cc(NC(=O)CNC(C)(C)C)c(O)c2c1C[C@H]1C[C@H]3[C@H](N(C)C)C(O)=C(C(N)=O)C(=O)[C@@]3(O)C(O)=C1C2=O [tigecycline]
[1]; relative to minocycline
  inhibition of bacterial protein synthesis, fold greater than minocycline: 3 fold
[1]; relative to tetracycline
  inhibition of bacterial protein synthesis, fold greater than tetracycline: 20 fold
[2]
  reduction of clonogenic growth: 93±4%
[3]
  reduction of clonogenic growth: 34±5%
[4]; 50 mg/kg bid for 5 days, western blotting
  expression of cytochrome C oxidase subunits in tumours: preferential decreased expression of mitochondrially translated subunits Cox-1 and Cox-2
[4]; [7]
  decrease in tumor mass vs vehicle control: up to 70%
  decrease in tumor volume vs vehicle control: up to 70%
[4]; mouse, in vivo
  toxicity in xenograft mice: No evidence of toxicity
[5]
  toxicology findings: reversible anemia, thrombocytopenia, and leucopenia with a hypocellular bone marrow
[6]
  Tmax: ~0.5 h
  half-life: ~4.5 h
